Like-named read-outs stand apart in the source and are kept apart here.
Key:
[1] = previous stability studies; ref Dzierżyńska et al., 2023; cited from earlier work
[2] = system: human peripheral blood mononuclear cells (PBMCs); assay: Immunological analysis: activation of immune cells by flow cytometry; format: cell-based
Method: The analysis of the effect on immune cells in vitro was performed with human peripheral blood mononuclear cells (PBMCs) isolated from “buffy coats” using a Ficoll density gradient (Histopaque, Sigma-Aldrich Co.). The procedure was approved by the Independent Bioethics Commission for Research of the Medical University of Gdańsk (NKBBN/387/2014). 100 ul of 1% RADA-PDGF2 was placed in a 24-well plate. Then, culture inserts with a pore diameter of 0.4 μm were placed in the wells, and cells were seeded into them in the amount of 0.5 million cells/0.5 mL RPMI 1640 (P/S, 10% FBS)/well. This was then supplemented with medium alone to a final volume of 1 mL/well. Cells were incubated in standard conditions for 24 h. The negative control was unstimulated cells, grown in the insert, in a well without gels. RADA16-I constituted an additional control. After the incubation, cells were harvested, washed in PBS, counted, and prepared for cytometric analysis. 100,000 cells/100 µL were stained with fluorochrome-conjugated monoclonal antibodies (anti-CD3, anti-CD4, anti-CD8, anti-CD16, anti-CD56, anti-CD25, anti-CD69, anti-CD71, anti-HLA-DR, anti-CD11c, anti-CD80, and anti-CD83). Following 30 min of incubation at room temperature (RT) in the dark, the cells were analyzed using a flow cytometer (LSRFortessa, BD).

[3] = in vivo, iv; cited from earlier work
From the text: (§1) Platelet-derived growth factor BB (PDGF-BB), one of the first growth factors released into the wound, plays a crucial role in the wound healing process. It is responsible for the formation of granulation tissue, production of extracellular matrix (ECM), takes part in the recruitment of mesenchymal stromal cells (MSCs), and stimulates the proliferation of fibroblasts ([White et al., 2021]). In 1997, the FDA approved human recombinant PDGF-BB in sodium carboxy-methylcellulose (NaCMC) hydrogel (Regranex®) for the treatment of DFUs ([Reyes-Martínez et al., 2019]). However, because of the high cos ...

[4] = system: human neutrophil elastase; assay: human neutrophil elastase enzyme (EC No. 3.4.21.37, Sigma Aldrich, USA) in 25 mM Tris HCl buffer, pH 7.5; details: 37°C, up to 30 min
[5] = system: dermal fibroblast, 46BR.1N fibroblast, and HaCaT keratinocytes; format: cell-based, human
Method: Cell viability of dermal fibroblast, 46BR.1N fibroblast, and HaCaT keratinocytes was analyzed after 4 days of cell culture on RADA-PDGF2 hydrogel. RADA-PDGF2 was dissolved in water at a concentration of 1% w/v and placed in the inserts (0.4 µm) located in a 24-well plate. The whole was incubated for at least 1 hour at 37°C to allow gelation. Then, twice the volume of DMEM HG medium was added to the gel and left overnight in the incubator. The cells were trypsinized, centrifuge and then seeded on a gel at 50,000 per insert in DMEM HG medium with 2% FBS and 1% P/S. The medium was changed to DMEM HG with 2% FBS and 1% P/S after 2 days of incubation. After 4 days of incubation to assess viability, cells were stained with Calcein-AM (c = 8 µM) and propidium iodide (2 μg/mL) for 30 min and then analyzed by confocal microscopy with the use of Nikon Eclipse Ti-e Confocal Microscope.

[6] = format: physicochemical
Method: Blood samples provided by healthy volunteers were processed with lithium/heparin tubes to eliminate clots by centrifugation. Plasma aliquots were mixed with RADA-PDGF2 peptide for 24 h at 37°C, using a plasma to peptide volume ratio of (4:1% v/v), to obtain final concentration 2.69 µM of RADA-PDGF2 peptide.). Samples were collected at six time points (0, 1, 2, 3, 6, and 24 h) to assess water and plasma stability. The collected samples were then prepared and analyzed according to the protocol described earlier ([Dzierżyńska et al., 2023]).

skin cells = details: cited from earlier work
From the text: Platelet-derived growth factor BB (PDGF-BB), one of the first growth factors released into the wound, plays a crucial role in the wound healing process. It is responsible for the formation of granulation tissue, production of extracellular matrix (ECM), takes part in the recruitment of mesenchymal stromal cells (MSCs), and stimulates the proliferation of fibroblasts ([White et al., 2021]). In 1997, the FDA approved human recombinant PDGF-BB in sodium carboxy-methylcellulose (NaCMC) hydrogel (Regranex®) for the treatment of DFUs ([Reyes-Martínez et al., 2019]). However, because of the high cos ... || During the development of new biomaterials, it is crucial to analyze not only their physicochemical properties and activity but also their biocompatibility and potential risk to human cells and tissues ([Schmalz and […], 2017]). That is why we decided to evaluate the cytotoxicity of RADA-PDGF2 and its effect on immune cells. Based on our experience and literature data, we know that peptides can be cytotoxic to human cells ([Greco et al., 2020]). […] However, RADA- ...

[7] = system: lymphocytes and basophils; details: cited from earlier work
From the text: as §1

mice = details: applied topically in 18% P407 hydrogel, mice model; ref Deptuła et al., 2020; cited from earlier work
From the text: as §1

[8] = system: human skin cells, especially keratinocytes; details: ref Deptuła et al., 2020; cited from earlier work
From the text: as §1

For `CC(=O)N[C@@H](CCCNC(=N)N)C(=O)N[C@@H](C)C(=O)N[C@@H](CC(=O)O)C(=O)N[C@@H](C)C(=O)N[C@@H](CCCNC(=N)N)C(=O)N[C@@H](C)C(=O)N[C@@H](CC(=O)O)C(=O)N[C@@H](C)C(=O)N[C@@H](CCCNC(=N)N)C(=O)N[C@@H](C)C(=O)N[C@@H](CC(=O)O)C(=O)N[C@@H](C)C(=O)N[C@@H](CCCNC(=N)N)C(=O)N[C@@H](C)C(=O)N[C@@H](CC(=O)O)C(=O)N[C@@H](C)C(N)=O` [RADA16-I, reference compound], the “presence of peptide in plasma” value [1] is given as “did not show prolonged presence of peptide in plasma” and the overall immunological assessment ([2]; PBMCs, 24 h, due to the low values of the changes) is given as “safe in an immunological context”.

For “PDGF-BB: Platelet-derived growth factor BB”, the half-life [3] is listed as “a few minutes”.

With Ac-(RADA)4GGGAAPVGGGRLIDRTNANFL-NH2 the cleaved bond [4] was “V23-G24, major”.

In the case of `CC[C@H](C)[C@H](NC(=O)[C@H](CC(C)C)NC(=O)[C@H](CCCNC(=N)N)NC(=O)CNC(=O)CNC(=O)CNC(=O)[C@@H](NC(=O)[C@@H]1CCCN1C(=O)[C@H](C)NC(=O)[C@H](C)NC(=O)CNC(=O)CNC(=O)CNC(=O)[C@H](C)NC(=O)[C@H](CC(=O)O)NC(=O)[C@H](C)NC(=O)[C@H](CCCNC(=N)N)NC(=O)[C@H](C)NC(=O)[C@H](CC(=O)O)NC(=O)[C@H](C)NC(=O)[C@H](CCCNC(=N)N)NC(=O)[C@H](C)NC(=O)[C@H](CC(=O)O)NC(=O)[C@H](C)NC(=O)[C@H](CCCNC(=N)N)NC(=O)[C@H](C)NC(=O)[C@H](CC(=O)O)NC(=O)[C@H](C)NC(=O)[C@H](CCCNC(=N)N)NC(C)=O)C(C)C)C(=O)N[C@@H](CC(=O)O)C(=O)N[C@@H](CCCNC(=N)N)C(=O)N[C@H](C(=O)N[C@@H](CC(N)=O)C(=O)N[C@@H](C)C(=O)N[C@@H](CC(N)=O)C(=O)N[C@@H](Cc1ccccc1)C(=O)N[C@@H](CC(C)C)C(N)=O)[C@@H](C)O` [RADA-PDGF2], the “skin cell viability on hydrogel” value [5] is reported as “remained viable”, the “time over which the peptide exhibited chemical stability in aqueous solution” value [6] is reported as 24 h and the “CD11c+CD83+ active DCs population compared to untreated control” value [2] is reported as “statistically significant increase”. For the same compound, the “NK cells: expression of CD25” value [2] was “slight increase”, the “NK cells: expression of CD71” value [2] was “reduction” and the “NK cells: statistical significance of change in activation markers” value [2] was “no statistical significance was noted”. The “Th cells: expression of activation markers versus unstimulated cells” value [2] was “any statistically significant differences between unstimulated cells and cells stimulated with RADA-PDGF2 were not observed”, the “cytotoxic lymphocytes (CTL): expression of CD69 marker” value [2] was “increased expression” and the overall immunological assessment [2] was “safe in an immunological context”.

For “RLIDRTNANFL [PDGF2, peptide … derived from PDGF-BB]”, the cytotoxicity (skin cells) is given as “minimal cytotoxicity”, the immunogenicity in vitro [7] is given as “negligible lymphocyte and basophil activation” and the “effect on wound healing” value (mice) is given as “accelerates wound healing”. For the same compound, the pro-proliferative properties [8] was “strong pro-proliferative properties”.
